From patent publication US12685779B2, “Complex” (UNITED IMMUNITY, CO., LTD., priority 2023, dated 2026) come the findings set out here.

Series [1] relates to reticulocytes. The series is described as follows: Blood test in mouse allogeneic tumor transplantation model. The format is in vivo. As to conditions: 84.5 μg i.v. on days 7, 9, 11; blood 1 day after final administration. As for the experimental part: 10^6 cells of the mouse colorectal cancer cell line MC38 were administered intradermally into the dorsal skin of mice (C57BL/6JJmsSlc, female). After 7 days, 9 days, and 11 days, the Telratolimod solution prepared in Test Example 4 and the CHP:Telratolimod solution prepared in Example 2 were each administered (amount of Telratolimod: 84.5 μg) via tail vein injection to 5 mice per group. One day after the final administration, blood was collected, and changes in red blood cell and reticulocyte counts were measured. Significance tests were performed using one-way ANOVA (*P<0.05, **P<0.01, ***P<0.001, ****P<0.0001).

The subject of series [2] is mouse colorectal cancer cell line CT26. The series is described as follows: Antitumor evaluation in mouse allogeneic tumor transplantation model (2). As to conditions: Telratolimod 42 μg i.v. days 7, 9, 11, 14, 16, 18, anti-PD-1 antibody 100 μg i.p. days 7, 11, 14, 18. The format is in vivo, mice (BALB/cCrSlc, female). As to the method: A mouse allogeneic tumor transplantation model was prepared by intradermally administering 10^6 cells of the mouse colorectal cancer cell line CT26 into the dorsal skin of mice (BALB/cCrSlc, female). On days 7, 9, 11, 14, 16, and 18 after cell transplantation, the CHP:Telratolimod solution prepared in Example 2 and the Telratolimod solution prepared in Test Example 4 were each administered via tail vein injection, and on days 7, 11, 14, and 18 after cell transplantation, an anti-PD-1 antibody (RMP1-14, Bio X Cell) solution was administered intraperitoneally, to 5 mice per group (amount of Telratolimod: 42 μg, amount of anti-PD-1 antibody: 100 μg). One group received a combination of the CHP:Telratolimod solution and the anti-PD-1 antibody. Tumor sizes were measured on days 7, 9, 11, 14, 16, 18, and 21. The tumor volume was calculated by (long axis×short axis×short axis)/2. The negative control is an untreated group.

In series [3] the test system is human peripheral blood-derived TAMs. The series is described as follows: Polarization test of human peripheral blood-derived TAMs (TNF-α ELISA). The class given is cell-based. To be noted: 30 μM in terms of Telratolimod, 2 days incubation, culture supernatant. As to the method:
(§1) Human peripheral blood-derived CD14-positive monocytes that had been cryopreserved in advance were awake and seeded in a 24-well tissue culture plate at 2×10^5 cells/well in 500 μL of basal medium (RPMI, 10% fetal bovine serum, 50 ng/mL M-CSF) and cultured for 3 days in a 37° C., 5% CO2 incubator, after which 500 μL of basal medium was further added, and the cells were cultured for 3 days. The medium was then replaced with 500 μL of TAM differentiation induction medium prepared by adding 10% fetal bovine serum, 50 ng/mL IL-4, 50 ng/mL IL-6, 50 ng/mL IL-10, 50 ng/mL IL-13, and 5% human AB type male donor defibrinated serum (Veritas) to a separately prepared culture supernatant of human cancer cells, and the cells were cultured for 2 days.
A Telratolimod solution or CHP:Telratolimod solution adjusted to a final concentration of 30 μM in terms of Telratolimod was added to the TAM prepared in Test Example 1, followed by incubation for 2 days, and TNF-α in the culture supernatant was measured by ELISA (BioLegend). The control was supplemented with only medium.
In general terms: In an ELISA, binding on a coated surface is turned into a signal by an enzyme label.

In series [4] the test system is human peripheral blood-derived TAMs (phagocytosis of HeLa cells). The series is described as follows: Cancer cell phagocytosis test of human peripheral blood-derived TAMs. The format is cell-based. To be noted: 10 μM in terms of Telratolimod, 2 days, doxorubicin-treated HeLa cells, flow cytometry. As to the method:
HeLa cells were labeled with fluorescent label 1 (CellTracker Green CMTPX Dye, ThermoFisher) for 30 minutes, then washed twice with PBS(−), and cultured overnight in medium (RPMI supplemented with 10% fetal bovine serum) containing 1.25 μM doxorubicin.
(§2) TAMs were prepared in the same manner as in Test Example 1, and Telratolimod or CHP:Telratolimod adjusted to a final concentration of 10 μM in terms of Telratolimod was added to the basal medium, followed by incubation for 2 days. After labeling with fluorescent labeling agent 2 (CellTracker Red CMTPX Dye, ThermoFisher) for 30 minutes, the cells were washed twice with PBS(−). The doxorubicin-treated HeLa cells were added at a half ratio to the TAMs and co-cultured overnight. The cells were then harvested, and the number of cells co-positive for fluorescent labels 1 and 2 was determined by flow cytometry. The control was supplemented with only medium.

In series [5] the test system is human peripheral blood-derived M2-like macrophages (phagocytosis of HeLa cells). The series is described as follows: Cancer cell phagocytosis test of human peripheral blood-derived M2-like macrophages. To be noted: 10 μM in terms of Telratolimod, 1 day, flow cytometry. The class given is cell-based. As for the experimental part:
HeLa cells were labeled with fluorescent label 1 (CellTracker Green CMTPX Dye, ThermoFisher) for 30 minutes, then washed twice with PBS(−), and cultured overnight in medium (RPMI supplemented with 10% fetal bovine serum) containing 2.5 μM doxorubicin.
as §2, with “Telratolimod” for “TAMs were prepared in the same manner as in Test Example 1, and Telratolimod”, “and the M2-like macrophages prepared in Test Example 11 were incubated” for “followed by incubation”, “1 day.” for “2 days.”, “The” for “The doxorubicin-treated”, “M2-like macrophages” for “TAMs”

Series [6] concerns mouse colon cancer cell line MC38. The series is described as follows: Antitumor evaluation in mouse allogeneic tumor transplantation model (1). The class given is in vivo, mice (C57BL/6JJmsSlc, female). To be noted: MC38, 84.5 μg Telratolimod i.v. on days 7, 9, 11, 14, 16, 18; day 19. As for the experimental part:
A mouse allogeneic tumor transplantation model was prepared by intradermally administering 10^6 cells of the mouse colon cancer cell line MC38 into the dorsal skin of mice (C57BL/6JJmsSlc, female). Mice on day 7 after cell administration were used. 84.5 μg of CHP:Telratolimod prepared in Example 2 or Telratolimod dissolved in a solubilizing solvent (17.1% polyethylene glycol 300, 4.3% Tween 80, and 8.6% polyoxyethylene hydrogenated castor oil) was administered via tail vein injection, and changes in the concentration of Telratolimod in the blood were measured. Blood was collected from 5 mice per group. After each test drug was administered via tail vein injection, 80 μL of isopropyl alcohol was added to 20 μL of serum collected after 1 minute, 30 minutes, 1 hour, 2 hours, and 6 hours, and bead crushing was performed for 1 minute using a 5 mm diameter stainless steel ball. […] The collected supernatant was analyzed by LS-MS/MS to measure the Telratolimod concentration. […]
An MC38 mouse allogeneic tumor transplantation model was prepared in the same manner as in Test Example 4. […] Tumor sizes were measured on days 7, 9, 11, 14, 16, 18, and 19. The tumor volume was calculated by (long axis×short axis×short axis)/2. […]

The nature of series [7]: Examination of encapsulation of TLR7 and TLR8 agonists in CHP nanogel (Example 1). The format is physicochemical. To be noted: CHP in 6 M urea in PBS(−), stepwise dialysis against PBS(−). As for the experimental part:
Nine TLR7 and TLR8 agonists (Telratolimod, Motolimod, Vesatolimod, Resiquimod, Imiquimod, CL075, CU-CPT17e, CU-CPT9a, and PF-4878691) were examined for whether they could be encapsulated in CHP nanogel. CHP was dissolved in a 6 M urea solution in PBS(−), and a compound solution was added thereto. Then, stepwise dialysis was performed against PBS(−).

The subject of series [8] is cytokines in serum. The series is described as follows: Evaluation of cytokine release in mouse allogeneic tumor transplantation model. To be noted: 84.5 μg i.v., blood after 2 hours, MC38-bearing mice. The class given is in vivo, mice (C57BL/6JJmsSlc, female). As for the experimental part: The allograft model mice used were 10 days after 10^6 cells of the mouse colorectal cancer cell line MC38 were administered intradermally into the dorsal skin of mice (C57BL/6JJmsSlc, female). The Telratolimod solution prepared in Test Example 4 and the CHP:Telratolimod solution prepared in Example 2 were each administered (amount of Telratolimod: 84.5 μg) via tail vein injection to 5 mice per group, and blood was collected after 2 hours. The serum was obtained by centrifugation, and changes in the amount of cytokines were measured using LEGENDplex Mouse Inflammation Panel (BioLegend). Significance tests were performed using one-way ANOVA (*P<0.05, **P<0.01, ***P<0.001, ****P<0.0001).

Series [9] concerns human peripheral blood-derived M2-like macrophages. The series is described as follows: Polarization test of human peripheral blood-derived M2-like macrophages (cytokine bead assay). As to conditions: 3 μM, 1 day, culture supernatant. The format is cell-based. As to the method:
as §1, with “M2-like macrophage” for “TAM”, “adding” for “adding 10% fetal bovine serum,”, “IL-10, and” for “IL-10,”, “IL-13” for “IL-13, and 5% human AB type male donor defibrinated serum (Veritas)”, “the basal medium,” for “a separately prepared culture supernatant of human cancer cells,”
A Telratolimod solution or CHP:Telratolimod solution adjusted to a final concentration of 3 μM in terms of Telratolimod was added to the M2-like macrophages prepared in Test Example 11, followed by incubation for 1 day, and TNF-α, IL-1β, IL-6, IL-12p40 (p40 subunit of IL-12), IL-23, and CXCL10 in the culture supernatant were measured using a flow cytometry bead assay kit (LEGENDplex™, BioLegend). The control was supplemented with only medium.

The test system of series [10] is macrophages infiltrating into the tumors (MC38). The series is described as follows: Evaluation of TAM polarization in mouse allogeneic tumor transplantation model. The class given is in vivo, mice. As to conditions: MC38, 84.5 μg i.v. on days 7, 9, 11; tumors 1 day after final administration; flow cytometry. As to the method:
An MC38 mouse allogeneic tumor transplantation model was prepared in the same manner as in Test Example 6, and on days 7, 9, and 11 after cell transplantation, the CHP:Telratolimod solution prepared in Example 2 and the Telratolimod solution prepared in Test Example 4 were each administered via tail vein injection to 5 mice per group (amount of Telratolimod: 84.5 μg). One day after the final administration, the tumors were excised, and macrophages infiltrating into the tumors were measured by flow cytometry. Significance tests were performed using one-way ANOVA (*P<0.05, **P<0.01, ***P<0.001, ****P<0.0001).

The nature of series [11]: Blood concentration changes in mouse allogeneic tumor transplantation model. As to conditions: 84.5 μg via tail vein injection, MC38-bearing mice, serum 1 min to 6 hours. The format is in vivo, mice (C57BL/6JJmsSlc, female). As to the method: A mouse allogeneic tumor transplantation model was prepared by intradermally administering 10^6 cells of the mouse colon cancer cell line MC38 into the dorsal skin of mice (C57BL/6JJmsSlc, female). Mice on day 7 after cell administration were used. 84.5 μg of CHP:Telratolimod prepared in Example 2 or Telratolimod dissolved in a solubilizing solvent (17.1% polyethylene glycol 300, 4.3% Tween 80, and 8.6% polyoxyethylene hydrogenated castor oil) was administered via tail vein injection, and changes in the concentration of Telratolimod in the blood were measured. Blood was collected from 5 mice per group. After each test drug was administered via tail vein injection, 80 μL of isopropyl alcohol was added to 20 μL of serum collected after 1 minute, 30 minutes, 1 hour, 2 hours, and 6 hours, and bead crushing was performed for 1 minute using a 5 mm diameter stainless steel ball. Further, 400 μL of an 80% isopropyl alcohol and 20% acetonitrile solution was added and mixed, followed by sonication for 3 minutes, and centrifugation at 12000 g for 5 minutes to collect the supernatant. The collected supernatant was analyzed by LS-MS/MS to measure the Telratolimod concentration. […]

Turning to `CCCCCCCCCCCCCCCCCC(=O)NCCCCOn1c(CCCC)nc2c(N)nc3ccccc3c21` [Telratolimod], in series [1], the “change in reticulocytes (bone marrow toxicity indicator)” value is “significant decrease”. In addition, the “antitumor effect (tumor volume)” value in series [2] is on record as “limited”. The same molecule came in with a TNF-α in series [3] of 700 pg/mL. In [4], this molecule returned a Phagocytosis rate of 5.5%. In series [5], this molecule yielded a Phagocytosis rate of 9.7%. Moreover, the “growth inhibition compared to the solvent control” value in series [6] stood at 49%. Also, in series [7], the “whether the compound could be encapsulated in CHP nanogel and formed into a solution” value is “could be stably encapsulated in the CHP nanogel and formed into a solution”. Besides, in [8], the IFN-β in serum result is on record as “rapid increases”, the IL-6 in serum result is “rapid increases” and the MCP-1 in serum entry was “rapid increases”. Further, in series [9], the CXCL10 is recorded as 140 ± 20 pg/mL, the IL-1β amounted to 2.3 ± 0.64 pg/mL, the IL-6 is given as 3100 ± 380 pg/mL and the IL-12p40 turned out to be 59 ± 22 pg/mL. In series [9], this molecule displayed an IL-23 of 1.4 ± 0.35 pg/mL and a TNF-α of 40 ± 7.3 pg/mL. In series [10], the “expression of ARG1 (M2-like macrophage marker)” value is on record as “tended to decrease” and the “expression of iNOS (M1-like macrophage marker)” value is on record as “significantly increased”. Also, the “blood concentration of Telratolimod over time” value in series [11] is listed as “rapidly decreased within 30 minutes after administration”.
